Reference: ChEMBL document CHEMBL1146833, “A novel series of potent and selective IKK2 inhibitors” (Bioorg Med Chem Lett, 2004)
“And” between values parts separate entries of the source, which are not always exact repeats. Identical values can stand only once.

Assays:
[1] = target: T1, Inhibitor of nuclear factor kappa-B kinase subunit alpha (Homo sapiens, UniProt O15111); assay: Inhibitory activity against IKK1
T1 sequence (O15111 whole entry): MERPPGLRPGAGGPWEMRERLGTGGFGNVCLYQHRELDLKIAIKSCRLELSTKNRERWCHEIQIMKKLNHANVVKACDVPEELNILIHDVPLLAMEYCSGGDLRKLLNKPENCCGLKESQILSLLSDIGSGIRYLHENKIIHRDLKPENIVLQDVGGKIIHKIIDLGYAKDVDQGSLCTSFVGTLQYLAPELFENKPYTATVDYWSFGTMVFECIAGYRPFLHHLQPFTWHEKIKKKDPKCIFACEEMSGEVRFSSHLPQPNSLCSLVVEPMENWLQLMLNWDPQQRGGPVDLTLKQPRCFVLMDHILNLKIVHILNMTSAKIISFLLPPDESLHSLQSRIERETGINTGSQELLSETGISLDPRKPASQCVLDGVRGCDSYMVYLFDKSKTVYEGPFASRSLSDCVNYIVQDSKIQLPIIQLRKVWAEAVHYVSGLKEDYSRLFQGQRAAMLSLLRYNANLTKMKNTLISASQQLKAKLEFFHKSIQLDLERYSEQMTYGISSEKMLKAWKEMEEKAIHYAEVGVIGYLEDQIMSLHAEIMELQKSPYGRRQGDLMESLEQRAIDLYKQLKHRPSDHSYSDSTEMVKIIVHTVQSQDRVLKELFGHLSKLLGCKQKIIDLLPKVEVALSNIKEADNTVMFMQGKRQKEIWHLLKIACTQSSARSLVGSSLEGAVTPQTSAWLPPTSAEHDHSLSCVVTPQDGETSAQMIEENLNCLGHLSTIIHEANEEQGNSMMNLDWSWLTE

[2] = target: T2, Inhibitor of nuclear factor kappa-B kinase subunit beta (Homo sapiens, UniProt O14920); assay: Inhibitory activity against IKK2
T2 sequence (O14920 whole entry): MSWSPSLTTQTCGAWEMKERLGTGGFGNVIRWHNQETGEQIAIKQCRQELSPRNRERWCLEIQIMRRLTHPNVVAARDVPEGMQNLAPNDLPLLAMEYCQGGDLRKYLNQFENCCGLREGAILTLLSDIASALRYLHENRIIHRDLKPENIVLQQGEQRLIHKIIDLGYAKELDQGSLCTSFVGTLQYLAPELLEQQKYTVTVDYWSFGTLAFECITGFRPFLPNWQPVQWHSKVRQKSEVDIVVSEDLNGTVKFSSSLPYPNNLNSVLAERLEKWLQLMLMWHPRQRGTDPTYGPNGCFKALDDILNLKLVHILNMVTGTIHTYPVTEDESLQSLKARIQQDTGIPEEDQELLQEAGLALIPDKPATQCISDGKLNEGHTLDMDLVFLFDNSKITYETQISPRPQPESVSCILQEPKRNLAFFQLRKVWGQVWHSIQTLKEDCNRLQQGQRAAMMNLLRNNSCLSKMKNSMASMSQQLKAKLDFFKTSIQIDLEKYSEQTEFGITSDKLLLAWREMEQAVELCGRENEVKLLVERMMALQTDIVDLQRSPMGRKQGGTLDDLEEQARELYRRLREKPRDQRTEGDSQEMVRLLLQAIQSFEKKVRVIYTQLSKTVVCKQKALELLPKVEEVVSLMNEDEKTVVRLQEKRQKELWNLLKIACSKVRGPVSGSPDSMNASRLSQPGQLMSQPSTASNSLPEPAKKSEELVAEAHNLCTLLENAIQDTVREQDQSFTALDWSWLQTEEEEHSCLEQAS

Homo sapiens = species on record: Homo sapiens; assay: Selectivity for IKK2/IKK1

| IC50 [1] [µM] | IC50 [2] | Selectivity (Homo sapiens) | SMILES |
| --- | --- | --- | --- |
| 0.155 | 0.145 µM | 1 | COc1cc(Nc2nccc(-c3ccc(S(=O)(=O)N4CCNCC4)cc3)n2)cc(OC)c1OC |
| 1.17 | 0.091 µM | 13 | O=S(=O)(c1ccc(-c2ccnc(Nc3ccccc3)n2)cc1)N1CCNCC1 |
| 4.07 | 0.117 µM | – | O=S(=O)(c1ccc(-c2ccnc(Nc3cc(F)cc(F)c3)n2)cc1)N1CCNCC1 |
| – | 0.55 µM and 0.146 µM | 6 | NC(=O)c1c[nH]c2ccc(-c3ccc(Nc4nccc(-c5ccc(S(=O)(=O)N6CCNCC6)cc5)n4)cc3)cc12 |
| 2.09 | 0.269 µM | – | Cc1ccc(Nc2nccc(-c3ccc(S(=O)(=O)N4CCNCC4)cc3)n2)cc1 |
| 5.13 | 0.083 µM | 62 | N#Cc1cccc(Nc2nccc(-c3ccc(S(=O)(=O)N4CCNCC4)cc3)n2)c1 |
| 0.245 | 0.011 µM | 21 | NS(=O)(=O)c1ccc(Nc2nccc(-c3ccc(S(=O)(=O)N4CCNCC4)cc3)n2)cc1 |
| 2.34 | 0.091 µM | 26 | C[S+]([O-])c1ccc(Nc2nccc(-c3ccc(S(=O)(=O)N4CCNCC4)cc3)n2)cc1 (stereo unspecified) |
| 1.23 | 0.214 µM | – | COc1ccc(Nc2nccc(-c3ccc(S(=O)(=O)N4CCNCC4)cc3)n2)cc1 |
| 1.7 | 0.026 µM | 65 | CC(=O)c1cc2cc(-c3ccc(Nc4nccc(-c5ccc(S(=O)(=O)N6CCNCC6)cc5)n4)cc3)ccc2o1 |
| 1.48 | 0.155 µM | 10 | NC(=O)Nc1ccc(Nc2nccc(-c3ccc(S(=O)(=O)N4CCNCC4)cc3)n2)cc1 |
| 3.98 | 0.513 µM | 8 | O=S(=O)(c1ccc(-c2ccnc(Nc3ccc(C(F)(F)F)cc3)n2)cc1)N1CCNCC1 |
| 6.92 | 0.066 µM | 105 | O=[N+]([O-])c1ccc(Nc2nccc(-c3ccc(S(=O)(=O)N4CCNCC4)cc3)n2)cc1 |
| 3.98 | 0.048 µM | 83 | NC(=O)c1ccc(Nc2nccc(-c3ccc(S(=O)(=O)N4CCNCC4)cc3)n2)cc1 |
| 2.69 | 0.309 µM | 9 | CCCCc1ccc(Nc2nccc(-c3ccc(S(=O)(=O)N4CCNCC4)cc3)n2)cc1 |
